Measurements as given in US20240123078A1, “COMPOUNDS AND METHODS FOR MODULATING IMMUNE-RELATED PROTEINS” (Vividion Therapeutics, Inc., priority 2019, published 2024).

Experiments:
[1] = molecular target: T1, KAT8 Histone acetyltransferase KAT8 C416 (Q9H7Z6) (Homo sapiens, UniProt Q9H7Z6); test: Cysteine reactivity ABPP; type: binding; conditions: 100
T1 construct: endogenous in cells; host or cells: primary human T cells
T1 sequence (Q9H7Z6 1-458): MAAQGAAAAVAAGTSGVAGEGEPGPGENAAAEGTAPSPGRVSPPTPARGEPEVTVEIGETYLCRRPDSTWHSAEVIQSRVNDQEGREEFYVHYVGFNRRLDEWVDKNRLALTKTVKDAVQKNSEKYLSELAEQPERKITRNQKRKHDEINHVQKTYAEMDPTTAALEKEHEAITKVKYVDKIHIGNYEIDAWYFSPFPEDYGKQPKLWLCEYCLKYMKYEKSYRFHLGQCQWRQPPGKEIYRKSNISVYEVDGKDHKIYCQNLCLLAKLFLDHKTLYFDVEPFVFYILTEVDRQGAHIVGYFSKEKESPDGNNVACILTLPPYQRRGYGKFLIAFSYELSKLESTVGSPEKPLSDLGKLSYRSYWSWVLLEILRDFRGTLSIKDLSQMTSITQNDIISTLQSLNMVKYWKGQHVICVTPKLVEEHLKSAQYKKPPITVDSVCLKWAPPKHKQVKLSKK

[2] = molecular target: T2, UBASH3A Ubiquitin-associated and SH3 domain-containing protein A C435 (P57075) (Homo sapiens, UniProt P57075); test: Cysteine reactivity ABPP; type: binding; conditions: 100
T2 construct: endogenous in cells; host or cells: primary human T cells
T2 sequence (P57075 1-661): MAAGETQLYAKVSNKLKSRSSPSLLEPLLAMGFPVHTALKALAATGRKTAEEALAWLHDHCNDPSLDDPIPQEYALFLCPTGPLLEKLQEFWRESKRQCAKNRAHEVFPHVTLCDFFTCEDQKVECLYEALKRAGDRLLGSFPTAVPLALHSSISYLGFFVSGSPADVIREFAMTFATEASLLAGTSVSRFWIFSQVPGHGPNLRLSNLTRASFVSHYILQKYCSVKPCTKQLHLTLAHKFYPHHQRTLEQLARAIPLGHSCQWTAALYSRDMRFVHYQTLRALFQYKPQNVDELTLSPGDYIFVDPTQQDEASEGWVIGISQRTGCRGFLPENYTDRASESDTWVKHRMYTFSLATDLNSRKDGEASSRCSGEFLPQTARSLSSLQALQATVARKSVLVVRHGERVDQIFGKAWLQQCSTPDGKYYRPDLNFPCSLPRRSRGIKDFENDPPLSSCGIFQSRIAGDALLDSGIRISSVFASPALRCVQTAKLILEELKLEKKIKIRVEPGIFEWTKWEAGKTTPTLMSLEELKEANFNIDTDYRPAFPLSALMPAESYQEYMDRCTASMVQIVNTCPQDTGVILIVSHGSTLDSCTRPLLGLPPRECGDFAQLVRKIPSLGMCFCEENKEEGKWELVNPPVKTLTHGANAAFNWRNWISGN

Cysteine reactivity proteomic data [1]: 67.98
Cysteine reactivity proteomic data [2]: 78.65
Structure (SMILES): O=C(CCl)N1CCN(S(=O)(=O)c2ccc(-c3ccncc3)cc2)CC1 [Compound B9]
